Results on 18 compounds are retold here after patent US12440496B2, “Natriuretic peptide receptor a agonists useful for the treatment of cardiometabolic diseases, kidney disease and diabetes” (Merck Sharp & Dohme LLC, priority 2019, dated 2025).

Usually EC50 stands for the concentration giving half of the maximal effect.

The test addresses T1, hNPRA (Homo sapiens, UniProt P16066).
T1 construct: expressed in transfected cells
T1 sequence (P16066 33-1061): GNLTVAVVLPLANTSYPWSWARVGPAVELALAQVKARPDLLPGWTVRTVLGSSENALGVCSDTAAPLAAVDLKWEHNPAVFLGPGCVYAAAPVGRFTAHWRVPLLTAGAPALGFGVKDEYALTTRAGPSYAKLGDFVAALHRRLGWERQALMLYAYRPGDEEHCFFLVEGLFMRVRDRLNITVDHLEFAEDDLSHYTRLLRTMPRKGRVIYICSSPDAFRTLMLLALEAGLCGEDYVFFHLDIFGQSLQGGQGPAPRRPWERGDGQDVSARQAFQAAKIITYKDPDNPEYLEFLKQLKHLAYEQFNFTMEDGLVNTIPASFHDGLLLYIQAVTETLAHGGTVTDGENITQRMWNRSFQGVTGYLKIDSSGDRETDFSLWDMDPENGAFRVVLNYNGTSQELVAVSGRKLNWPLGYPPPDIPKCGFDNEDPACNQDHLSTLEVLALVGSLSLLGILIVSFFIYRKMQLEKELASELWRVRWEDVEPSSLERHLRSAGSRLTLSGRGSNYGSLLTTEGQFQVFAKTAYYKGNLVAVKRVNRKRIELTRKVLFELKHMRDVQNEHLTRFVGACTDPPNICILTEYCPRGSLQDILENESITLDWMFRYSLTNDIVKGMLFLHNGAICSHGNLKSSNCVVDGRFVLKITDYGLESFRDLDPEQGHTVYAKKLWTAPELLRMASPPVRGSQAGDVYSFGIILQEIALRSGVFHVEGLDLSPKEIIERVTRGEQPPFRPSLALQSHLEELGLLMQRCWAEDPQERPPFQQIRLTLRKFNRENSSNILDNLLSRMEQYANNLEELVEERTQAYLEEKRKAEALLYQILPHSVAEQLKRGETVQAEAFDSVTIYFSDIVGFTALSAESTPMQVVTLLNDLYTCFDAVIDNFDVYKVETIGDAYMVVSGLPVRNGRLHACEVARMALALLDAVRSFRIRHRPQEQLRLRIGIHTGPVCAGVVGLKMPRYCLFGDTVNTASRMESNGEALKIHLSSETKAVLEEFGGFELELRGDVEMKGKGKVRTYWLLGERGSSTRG
The experiment in a line: NPRA Functional Cell Assay (cGMP HTRF, NPRA HEK JumpIn stable cells). The test is classed as cell-based. The following applies: cGMP production, 1 hour at 37° C., 10-point dose response. The method, boiled down:
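cGMP HTRF read-out after 1 hour compound treatment at 37° C. of human NPRA-expressing HEK JumpIn cells, 1500 cells/well, in buffer with phosphodiesterase inhibitors IBMX and RO20 (100 uM each). Signal converted to [cGMP] by calibration curve; EC50s fitted by 4-parameter logistic; 50 nM h-ANP as positive response.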
Compound `CC(C)(C)[C@H]1CCc2nc3sc(C(=O)N[C@H](CCN4CCC(O)CC4)c4ccc(-c5ccc(O)nn5)cc4)nc3cc2C1` (racemic) [Example 165, rac-(7S)-7-tert-butyl-N-[rac-(1R)-3-(4-hydroxypiperidin-1-ium-1-yl)-1-[4-(6-hydroxypyridazin-3-yl)phenyl]propyl]-5,6,7,8-tetrahydrothiazolo[5,4-b]quinoline-2-carboxamide; 2,2,2-trifluoroacetate] gave an EC50 of 611 nM. As for `CN(C)C1CCN(CCC(NC(=O)c2cc3cc4c(nc3s2)CCC(C(C)(C)C)C4)c2ccc(-c3ccc(=O)[nH]c3)cc2)CC1` (racemic) [Example 28, dimethyl-[1-[rac-(3R)-3-[4-(6-oxo-1H-pyridin-3-yl)phenyl]-3-[[rac-(6S)-6-tert-butyl-5,6,7,8-tetrahydrothieno[2,3-b]quinoline-2-carbonyl]amino]propyl]-4-piperidyl]ammonium;formate], the EC50 was determined as 446 nM. The result for `CC(C)(C)[C@H]1CCc2nc3sc(C(=O)N[C@H](CCN4C[C@@H](O)[C@H](O)C4)c4ccc(-c5ccc(=O)[nH]c5)cc4)cc3cc2C1` (racemic) [Example 51, rac-(6S)-6-tert-butyl-N-[rac-(1R)-1-[4-(6-oxo-1H-pyridin-3-yl)phenyl]-3-[rac-(3R,4R)-3,4-dihydroxypyrrolidin-1-ium-1-yl]propyl]-5,6,7,8-tetrahydrothieno[2,3-b]quinoline-2-carboxamide;formate] reads 705 nM. As for `CC(C)(C)[C@H]1CCc2nc3sc(C(=O)N[C@H](CCN4CCC(O)CC4)c4cccc(C(=O)NC5CNC(=O)C5)c4)nc3cc2C1` (mixture of isomers) [Example 155, rac-(7S)-7-tert-butyl-N-[rac-(1R)-3-(4-hydroxy-1-piperidyl)-1-[3-[(5-oxopyrrolidin-3-yl)carbamoyl]phenyl]propyl]-5,6,7,8-tetrahydrothiazolo[5,4-b]quinoline-2-carboxamide], the EC50 was determined as 766 nM. Compound `CC(C)(C)[C@H]1CCc2nc3sc(C(=O)N[C@H](CCN4CCC(O)CC4)c4cccc(C(=O)NCCN5CCOCC5)c4)nc3cc2C1` (racemic) [Example 150, rac-(7S)-7-tert-butyl-N-[rac-(1R)-3-(4-hydroxy-1-piperidyl)-1-[3-(2-morpholinoethylcarbamoyl)phenyl]propyl]-5,6,7,8-tetrahydrothiazolo[5,4-b]quinoline-2-carboxamide] returned an EC50 of 682 nM. `CC(C)(C)[C@H]1CCc2nc3sc(C(=O)N[C@H](CCNC4CCNC(=O)C4)c4ccc(-c5ccc(=O)[nH]c5)cc4)cc3cc2C1` (mixture of isomers) [Example 54, (2-oxo-4-piperidyl)-[rac-(3R)-3-[4-(6-oxo-1H-pyridin-3-yl)phenyl]-3-[rac-(6S)-6-tert-butyl-5,6,7,8-tetrahydrothieno[2,3-b]quinoline-2-carbonyl]amino]propyl] ammonium;formate] gave an EC50 of 758 nM. In turn, `Cc1n[nH]c(C)c1Oc1ccc([C@@H](CCN2CCC(O)CC2)NC(=O)c2nc3cc4c(nc3s2)CC[C@H](C(C)(C)C)C4)cn1` (racemic) [Example 191, rac-(7S)-7-tert-butyl-N-[rac-(1R)-1-[6-[(3,5-dimethyl-1H-pyrazol-4-yl)oxy]-3-pyridyl]-3-(4-hydroxy-1-piperidyl)propyl]-5,6,7,8-tetrahydrothiazolo[5,4-b]quinoline-2-carboxamide] registered an EC50 of 632 nM.

Compound `CNC(=O)c1cccc([C@@H](CCN(C)C)NC(=O)c2nc3cc4c(nc3s2)CC[C@H](C(C)(C)C)C4)c1` (racemic) [Example 98, rac-(7S)-7-tert-butyl-N-[rac-(1R)-3-(dimethyl-amino)-1-[3-(methylcarbamoyl)phenyl]propyl]-5,6,7,8-tetrahydrothiazolo[5,4-b] quinoline-2-carboxamide] registered a 50% effective concentration (EC50) of 1450 nM. Turning to `CC(C)(C)[C@H]1CCc2nc3sc(C(=O)N[C@H](CCN4CCCCC4CO)c4ccc(-c5ccc(=O)[nH]c5)cc4)cc3cc2C1` (mixture of isomers) [Example 30, rac-(6S)-6-tert-butyl-N-[rac-(1R)-3-[2-(hydroxymethyl)piperidin-1-ium-1-yl]-1-[4-(6-oxo-1H-pyridin-3-yl)phenyl]propyl]-5,6,7,8-tetrahydrothieno[2,3-b]quinoline-2-carboxamide;formate], the EC50 is 455 nM. As to `CN1CC(NC(=O)c2cccc([C@@H](CCN3CCC(CC(=O)O)CC3)NC(=O)c3nc4cc5c(nc4s3)CC[C@H](C(C)(C)C)C5)c2)C1` (racemic) [Example 101, 2-[1-[rac-(3R)-3-[3-[(1-methylazetidin-1-ium-3-yl)carbamoyl]phenyl]-3-[[rac-(7S)-7-tert-butyl-5,6,7,8-tetrahydrothiazolo [5,4-b]quinoline-2-carbonyl]amino]propyl]-4-piperidyl]acetic acid; 2,2,2-trifluoroacetate], the EC50 is 146 nM. For `Cn1nccc1-c1ccc([C@@H](CCN2CCCCC2)NC(=O)c2cc3cc4c(nc3s2)CC[C@H](C(C)(C)C)C4)cc1` (racemic) [Example 4, rac-(6S)-6-tert-butyl-N-[rac-(1R)-1-[4-(2-methylpyrazol-3-yl)phenyl]-3-(1-piperidyl)propyl]-5,6,7,8-tetrahydrothieno[2,3-b]quinoline-2-carboxamide], the EC50 came to 753 nM.

`CC(C)CN(C)CC[C@@H](NC(=O)c1nc2cc3c(nc2s1)CC[C@H](C(C)(C)C)C3)c1ccc(NS(=O)(=O)N(C)C)nc1` (racemic) [Example 212, isobutyl-methyl-[rac-(3R)-3-[6-(dimethylsulfamoylamino)-3-pyridyl]-3-[rac-(7S)-7-tert-butyl-5,6,7,8-tetrahydrothiazolo[5,4-b]quinoline-2-carbonyl]amino]propyl]ammonium; 2,2,2-trifluoroacetate] displayed an EC50 of 986 nM.

Turning to `CC(C)(C)[C@H]1CCc2nc3sc(C(=O)N[C@H](CCN4CCC(O)CC4)c4ccc(-c5cn[nH]c5)nc4)nc3cc2C1` (racemic) [Example 196, rac-(7S)-7-tert-butyl-N-[rac-(1R)-3-(4-hydroxy-1-piperidyl)-1-[6-(1H-pyrazol-4-yl)-3-pyridyl]propyl]-5,6,7,8-tetrahydrothiazolo[5,4-b]quinoline-2-carboxamide], the half-maximal effective concentration (EC50) came out at 303 nM. The result for `CC(C)(C)[C@H]1CCc2nc3sc(C(=O)N[C@H](CCN[C@H]4C[C@@H](CO)[C@H](O)[C@@H]4O)c4ccc(-c5ccc(=O)[nH]c5)cc4)cc3cc2C1` (racemic) [Example 26, [rac-(1S,2R,3S,4S)-2,3-dihydroxy-4-(hydroxymethyl)cyclopentyl]-[rac-(3R)-3-[4-(6-oxo-1H-pyridin-3-yl)phenyl]-3-[rac-(6S)-6-tert-butyl-5,6,7,8-tetrahydrothieno[2,3-b]quinoline-2-carbonyl]amino]propyl] ammonium;formate] reads 386 nM; that for `CC(C)(C)[C@H]1CCc2nc3sc(C(=O)N[C@H](CCN4CCC(O)CC4)c4ccc(-c5c[nH]c(=O)c(F)c5)cc4)nc3cc2C1` [Example 236, (S)-7-(tert-butyl)-N-((R)-1-(4-(5-fluoro-6-oxo-1,6-dihydropyridin-3-yl)phenyl)-3-(4-hydroxypiperidin-1-yl)propyl)-5,6,7,8-tetrahydrothiazolo[5,4-b]quinoline-2-carboxamide], 140 nM; that for `CC(C)(C)[C@H]1CCc2nc3sc(C(=O)NC(CCN4CCCCC4)c4ccccc4)cc3cc2C1` (stereo partly drawn) [Example 242, (6S)-6-tert-butyl-N-(1-phenyl-3-piperidin-1-ylpropyl)-5,6,7,8-tetrahydrothieno[2,3-b]quinoline-2-carboxamide], 1870 nM. The same measure for `COCCN(C)CC[C@@H](NC(=O)c1nc2cc3c(nc2s1)CC[C@H](C(C)(C)C)C3)c1ccc(NS(=O)(=O)N(C)C)nc1` (racemic) [Example 210, 2-methoxyethyl-methyl-[rac-(3R)-3-[6-(dimethylsulfamoylamino)-3-pyridyl]-3-[rac-(7S)-7-tert-butyl-5,6,7,8-tetrahydrothiazolo[5,4-b]quinoline-2-carbonyl]amino]propyl]ammonium; 2,2,2-trifluoroacetate]: 764 nM. Consider `CN1CC(NC(=O)c2cccc([C@@H](CCN3CC4C(C3)C4C(=O)O)NC(=O)c3nc4cc5c(nc4s3)CC[C@H](C(C)(C)C)C5)c2)C1` (mixture of isomers) [Example 108, 3-[rac-(3R)-3-[3-[(1-methylazetidin-1-ium-3-yl)carbamoyl]phenyl]-3-[[rac-(7S)-7-tert-butyl-5,6,7,8-tetrahydrothiazolo [5,4-b]quinoline-2-carbonyl]amino]propyl]-3-azabicyclo[3.1.0]hexane-6-carboxylic acid; 2,2,2-trifluoroacetate], for which the EC50 turned out to be 621 nM.
